# Test results as given in ChEMBL document CHEMBL1201862, “PubChem BioAssay data set” (2004).
# Calls of active or inactive are those of the source.
# What was measured:
# [1] = target: T1, Estrogen receptor (Homo sapiens, UniProt P03372); assay: potentiators of ERα–SRC-1 coactivator binding, dose response, biochemical, TR-FRET, ERα LBD (AID 737)
# T1 sequence (P03372 whole entry): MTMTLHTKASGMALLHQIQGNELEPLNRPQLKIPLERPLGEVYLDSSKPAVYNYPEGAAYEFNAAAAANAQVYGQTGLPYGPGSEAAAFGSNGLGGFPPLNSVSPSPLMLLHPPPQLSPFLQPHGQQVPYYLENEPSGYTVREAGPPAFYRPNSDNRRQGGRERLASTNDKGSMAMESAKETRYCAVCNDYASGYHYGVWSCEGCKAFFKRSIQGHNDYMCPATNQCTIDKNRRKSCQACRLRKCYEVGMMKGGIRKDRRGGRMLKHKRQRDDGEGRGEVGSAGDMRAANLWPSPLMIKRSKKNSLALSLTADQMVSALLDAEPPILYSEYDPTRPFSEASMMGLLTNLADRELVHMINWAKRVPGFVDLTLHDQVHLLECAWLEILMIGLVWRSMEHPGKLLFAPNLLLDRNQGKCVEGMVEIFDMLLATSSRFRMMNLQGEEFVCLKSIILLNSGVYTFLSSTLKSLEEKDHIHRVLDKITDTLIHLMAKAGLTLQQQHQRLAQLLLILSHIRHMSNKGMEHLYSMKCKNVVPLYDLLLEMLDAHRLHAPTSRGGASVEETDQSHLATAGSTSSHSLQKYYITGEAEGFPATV
# [2] = target: T2, Endoribonuclease toxin MazF (Escherichia coli K-12, UniProt P0AE70); assay: MazF toxin RNase activators, dose response, biochemical, fluorescence, single-stranded RNA substrate, uHTS hits (AID 588481); format: functional
# T2 sequence (P0AE70 whole entry): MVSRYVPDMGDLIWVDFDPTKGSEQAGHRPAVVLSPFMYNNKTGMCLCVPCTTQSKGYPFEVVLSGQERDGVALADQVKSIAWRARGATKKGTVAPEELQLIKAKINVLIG
# [3] = target: T2, Endoribonuclease toxin MazF; assay: fluorescent RNA oligo signal without MazF, dose response, counter-screen for MazEF activator project, biochemical, fluorescence, single-stranded RNase substrate (AID 588502); format: functional
# [4] = inhibitors of Bluetongue virus cytopathic effect, confirmation, arbovirus, BSR cells (AID 1250); format: functional;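 further: protection from viral cytopathic effect measured as cell viability by ATP luminescence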
# [5] = Luminescence Cell-Based Dose Retest to Confirm Inhibitors of Cancer Stem Cells. [Related pubchem assays (depositor defined):AID2717, AID2721]; format: functional; settings: Homo sapiens
# [6] = target: Peroxisome proliferator-activated receptor gamma/Nuclear receptor coactivator 1 (Homo sapiens, UniProt P37231); assay: (§1) TR-FRET dose response biochemical High Throughput Screening assay for agonists of the steroid receptor coactivator 1 (SRC-1) recruitment by the peroxisome proliferator-activated receptor gamma (PPAR gamma): non-selective agonists. [Related pubchem assays (depositor defined):AID1300, AID1808, AID504735, AID631]; format: protein assay
# [7] = target: Peroxisome proliferator-activated receptor gamma/Nuclear receptor coactivator 3 (Homo sapiens, UniProt P37231); assay: as §1, with “3 (SRC-3)” for “1 (SRC-1)”, “assays: 1301 (Confirmation screen.), 1048 (Primary screen.)]” for “assays (depositor defined):AID1300, AID1808, AID504735, AID631]”; format: functional
# [8] = Luminescence Cell-Based/Microorganism Confirmation at Dose of Inhibitors of Trypanosoma cruzi Infection. [Related pubchem assays: 1885, 1968 ]; format: functional
# [9] = inhibitors of intracellular T. cruzi replication, confirmation, NIH3T3 host cells, beta-gal luminescence (AID 2044); format: functional, cell-based;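 further: intracellular parasites grown in NIH/3T3 mouse fibroblasts as host cells; luminescent beta-galactosidase reporter signal from transgenic T. cruzi replicating inside host cells; inhibitors lower the luminescence signal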
# [10] = Luminescence Cell-Based Secondary HTS screen to identify cytotoxic compounds of NIH3T3 cells. [Related pubchem assays: 1885, 1968 ]; format: functional
# [11] = target: Peroxisome proliferator-activated receptor gamma/Nuclear receptor coactivator 2 (Homo sapiens, UniProt P37231); assay: TR-FRET dose response biochemical High Throughput Screening assay for agonists of the steroid receptor coactivator 2 (SRC-2) recruitment by the peroxisome proliferator-activated receptor gamma (PPAR gamma): non-selective agonists. [Related pubchem assays: 1297, 1032 ]; format: functional
# [12] = cytotoxicity toward NIH3T3 fibroblasts, dose response, counter-screen, cell-based, ATP luminescence, mouse fibroblasts (AID 2010); format: functional;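 further: cells exposed to compound for about 90 hours before reading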
# [13] = inhibitors of Trypanosoma cruzi host-cell infection, confirmation, beta-gal luminescence, NIH3T3 host cells (AID 2630); format: functional, cell-based; settings: Mus musculus
# [14] = Counterscreen for IDE inhibitors: Luminescence-based cell-based high throughput dose response assay to identify compounds that are cytotoxic to HEK cells. [Related pubchem assays: 434962 (Primary screen (IDE inhibitors in singlicate)), 449730 (Counterscreen (Cytotoxicity in triplicate)), 435028 (Confirmation (IDE inhibitors in triplicate)) …; format: functional; settings: HEK293
# [15] = target: T3, Insulin-degrading enzyme (Homo sapiens, UniProt P14735); assay: Dose Response: Fluorescence polarization-based cell-based high throughput dose response assay for inhibitors of insulin-degrading enzyme (IDE). [Related pubchem assays: 434962 (Primary screen (IDE inhibitors in singlicate)), 449730 (Counterscreen (Cytotoxicity in triplicate)), 435028 (Confirmation (IDE inhibitors in triplicate)), 434984 (Summary …; format: functional
# T3 sequence (P14735 whole entry): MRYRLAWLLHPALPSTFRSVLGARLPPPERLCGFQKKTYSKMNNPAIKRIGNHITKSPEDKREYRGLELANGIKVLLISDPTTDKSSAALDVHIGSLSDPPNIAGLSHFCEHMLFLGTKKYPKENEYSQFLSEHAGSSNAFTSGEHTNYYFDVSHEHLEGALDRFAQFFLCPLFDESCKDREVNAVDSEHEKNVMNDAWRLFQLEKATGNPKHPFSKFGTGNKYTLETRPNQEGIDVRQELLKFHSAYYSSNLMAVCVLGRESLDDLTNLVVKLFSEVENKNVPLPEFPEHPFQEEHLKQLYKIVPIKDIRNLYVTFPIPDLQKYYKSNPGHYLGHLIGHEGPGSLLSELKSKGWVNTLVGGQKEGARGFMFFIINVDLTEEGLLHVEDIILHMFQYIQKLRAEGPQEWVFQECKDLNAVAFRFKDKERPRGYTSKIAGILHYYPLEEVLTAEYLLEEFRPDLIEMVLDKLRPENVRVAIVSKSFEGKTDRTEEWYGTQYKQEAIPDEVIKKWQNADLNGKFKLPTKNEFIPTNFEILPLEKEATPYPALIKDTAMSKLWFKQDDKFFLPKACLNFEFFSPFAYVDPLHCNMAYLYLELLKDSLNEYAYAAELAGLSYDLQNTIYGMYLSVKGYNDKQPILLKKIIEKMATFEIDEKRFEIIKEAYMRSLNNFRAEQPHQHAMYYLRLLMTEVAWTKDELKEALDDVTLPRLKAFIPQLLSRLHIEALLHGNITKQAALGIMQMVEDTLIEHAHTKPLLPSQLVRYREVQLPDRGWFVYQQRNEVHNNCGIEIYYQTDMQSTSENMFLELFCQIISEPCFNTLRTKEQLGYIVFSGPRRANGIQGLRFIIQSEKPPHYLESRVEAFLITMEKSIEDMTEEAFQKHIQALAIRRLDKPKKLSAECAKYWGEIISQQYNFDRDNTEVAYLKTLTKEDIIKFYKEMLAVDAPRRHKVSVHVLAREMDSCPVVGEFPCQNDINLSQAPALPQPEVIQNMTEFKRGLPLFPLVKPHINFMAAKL
# 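Wherever AC50 is given: cells exposed to compound for roughly 70 hours or longer before luminescence read.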
# Peroxisome proliferator-activated receptor gamma/Nuclear receptor coactivator 3, sequence (P37231 whole entry): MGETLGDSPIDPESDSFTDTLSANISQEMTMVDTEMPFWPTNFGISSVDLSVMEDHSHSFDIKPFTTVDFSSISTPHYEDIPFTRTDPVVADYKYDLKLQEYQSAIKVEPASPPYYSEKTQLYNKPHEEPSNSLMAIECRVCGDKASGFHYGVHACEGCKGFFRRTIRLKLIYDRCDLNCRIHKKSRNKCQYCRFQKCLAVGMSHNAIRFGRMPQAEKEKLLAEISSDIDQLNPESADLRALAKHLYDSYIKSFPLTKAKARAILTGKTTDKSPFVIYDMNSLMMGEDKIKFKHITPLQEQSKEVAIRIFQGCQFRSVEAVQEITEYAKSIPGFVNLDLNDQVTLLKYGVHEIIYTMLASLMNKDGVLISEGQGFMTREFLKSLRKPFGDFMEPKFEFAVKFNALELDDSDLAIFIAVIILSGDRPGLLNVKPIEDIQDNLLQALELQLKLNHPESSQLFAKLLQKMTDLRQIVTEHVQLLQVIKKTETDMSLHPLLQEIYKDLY
# Peroxisome proliferator-activated receptor gamma/Nuclear receptor coactivator 3, sequence (Q9Y6Q9 whole entry, further chain): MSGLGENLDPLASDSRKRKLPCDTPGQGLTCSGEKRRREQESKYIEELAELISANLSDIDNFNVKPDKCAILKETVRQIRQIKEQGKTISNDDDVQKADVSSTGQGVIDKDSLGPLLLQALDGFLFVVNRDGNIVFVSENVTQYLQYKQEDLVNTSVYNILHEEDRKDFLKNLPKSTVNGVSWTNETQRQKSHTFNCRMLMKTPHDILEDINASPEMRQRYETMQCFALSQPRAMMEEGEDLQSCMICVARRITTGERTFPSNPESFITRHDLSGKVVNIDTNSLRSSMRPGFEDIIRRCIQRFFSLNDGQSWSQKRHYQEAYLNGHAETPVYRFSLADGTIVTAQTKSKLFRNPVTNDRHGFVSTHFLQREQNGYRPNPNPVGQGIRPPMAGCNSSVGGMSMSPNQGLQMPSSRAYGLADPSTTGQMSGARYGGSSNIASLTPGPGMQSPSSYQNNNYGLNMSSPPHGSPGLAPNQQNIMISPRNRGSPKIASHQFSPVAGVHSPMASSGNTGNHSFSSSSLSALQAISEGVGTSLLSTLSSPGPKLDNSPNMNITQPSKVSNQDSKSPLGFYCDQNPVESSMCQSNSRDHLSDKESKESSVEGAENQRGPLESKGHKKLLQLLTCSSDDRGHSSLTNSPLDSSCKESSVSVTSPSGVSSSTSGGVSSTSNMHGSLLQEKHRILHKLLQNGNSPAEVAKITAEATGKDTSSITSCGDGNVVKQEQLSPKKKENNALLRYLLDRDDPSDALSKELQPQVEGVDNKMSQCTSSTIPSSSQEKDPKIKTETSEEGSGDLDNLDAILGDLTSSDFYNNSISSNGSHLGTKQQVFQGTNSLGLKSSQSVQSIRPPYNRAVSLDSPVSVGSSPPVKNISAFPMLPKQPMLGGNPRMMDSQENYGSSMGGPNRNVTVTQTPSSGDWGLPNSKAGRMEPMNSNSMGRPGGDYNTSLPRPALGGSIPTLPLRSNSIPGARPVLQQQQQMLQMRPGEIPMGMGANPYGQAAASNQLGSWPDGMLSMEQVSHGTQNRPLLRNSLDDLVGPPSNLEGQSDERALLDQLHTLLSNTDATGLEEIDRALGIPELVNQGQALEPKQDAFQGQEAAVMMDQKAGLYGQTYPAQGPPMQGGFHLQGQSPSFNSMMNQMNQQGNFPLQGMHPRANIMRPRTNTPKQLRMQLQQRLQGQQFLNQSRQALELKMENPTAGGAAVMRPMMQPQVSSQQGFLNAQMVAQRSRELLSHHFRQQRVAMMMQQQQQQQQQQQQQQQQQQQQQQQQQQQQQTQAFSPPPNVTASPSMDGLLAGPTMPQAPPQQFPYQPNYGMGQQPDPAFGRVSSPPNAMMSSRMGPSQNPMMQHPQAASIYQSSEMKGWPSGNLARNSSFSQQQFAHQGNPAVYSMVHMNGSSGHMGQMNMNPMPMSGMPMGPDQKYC
# Peroxisome proliferator-activated receptor gamma/Nuclear receptor coactivator 1, sequence (P37231 whole entry): as the sequence (P37231 whole entry) above
# Peroxisome proliferator-activated receptor gamma/Nuclear receptor coactivator 1, sequence (Q15788 whole entry, further chain): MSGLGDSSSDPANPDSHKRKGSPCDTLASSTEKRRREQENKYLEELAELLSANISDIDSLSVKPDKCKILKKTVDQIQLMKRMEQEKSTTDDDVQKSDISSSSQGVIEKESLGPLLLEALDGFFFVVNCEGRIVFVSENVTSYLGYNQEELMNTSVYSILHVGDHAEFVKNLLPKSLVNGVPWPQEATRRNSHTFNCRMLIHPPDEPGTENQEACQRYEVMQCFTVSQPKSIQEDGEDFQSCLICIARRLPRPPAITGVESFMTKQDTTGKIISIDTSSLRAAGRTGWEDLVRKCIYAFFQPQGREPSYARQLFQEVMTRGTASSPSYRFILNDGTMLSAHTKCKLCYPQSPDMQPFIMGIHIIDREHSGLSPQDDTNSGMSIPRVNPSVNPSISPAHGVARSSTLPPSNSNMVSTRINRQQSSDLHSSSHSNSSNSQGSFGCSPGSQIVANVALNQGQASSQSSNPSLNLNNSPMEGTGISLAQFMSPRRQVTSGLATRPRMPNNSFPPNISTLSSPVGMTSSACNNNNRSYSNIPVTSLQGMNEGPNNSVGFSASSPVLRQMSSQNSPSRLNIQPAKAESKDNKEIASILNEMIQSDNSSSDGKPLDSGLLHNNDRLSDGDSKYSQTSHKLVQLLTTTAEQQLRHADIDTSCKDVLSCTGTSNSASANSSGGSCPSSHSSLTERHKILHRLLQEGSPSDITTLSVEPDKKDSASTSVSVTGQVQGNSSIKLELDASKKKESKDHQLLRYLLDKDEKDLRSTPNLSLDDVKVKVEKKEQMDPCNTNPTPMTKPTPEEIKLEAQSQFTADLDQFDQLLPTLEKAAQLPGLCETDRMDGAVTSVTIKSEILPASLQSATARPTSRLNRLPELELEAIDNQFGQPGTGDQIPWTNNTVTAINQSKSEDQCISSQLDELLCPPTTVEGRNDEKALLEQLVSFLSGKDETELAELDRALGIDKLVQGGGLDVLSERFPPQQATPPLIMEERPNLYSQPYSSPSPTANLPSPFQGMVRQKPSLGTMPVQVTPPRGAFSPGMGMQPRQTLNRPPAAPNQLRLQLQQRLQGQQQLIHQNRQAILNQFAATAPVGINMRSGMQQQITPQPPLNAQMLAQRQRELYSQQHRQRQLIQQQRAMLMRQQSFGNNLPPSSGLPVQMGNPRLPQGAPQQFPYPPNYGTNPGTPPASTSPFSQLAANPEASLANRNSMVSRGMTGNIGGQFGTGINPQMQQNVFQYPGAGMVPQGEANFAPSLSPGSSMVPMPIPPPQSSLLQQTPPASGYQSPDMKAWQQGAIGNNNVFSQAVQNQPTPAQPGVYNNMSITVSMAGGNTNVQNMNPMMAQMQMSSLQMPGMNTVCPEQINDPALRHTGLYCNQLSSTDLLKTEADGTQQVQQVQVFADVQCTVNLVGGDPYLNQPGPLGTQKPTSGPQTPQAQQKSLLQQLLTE
compound,measurement,setting,value
CCc1ccc2nc(SCC(=O)N3CC(=O)Nc4ccccc43)c(C#N)cc2c1,EC50,[1],32.9 µM (not active)
same,EC50,[2],> 99 µM (inactive)
same,EC50,[3],> 99 µM (inactive)
CC(C)(Oc1ccc(Cl)cc1)C(=O)NC1=NN(c2ccccc2)C(=O)C1,IC50,[4],31.8 µM (active)
same,AC50,[5],3.91 µM (active)
COc1cc(C(=O)NCCC(C)C)ccc1OCc1ccc(Cl)cc1Cl,EC50,[6],> 79.4 µM (inactive)
same,EC50,[7],> 79.4 µM (not active)
same,EC50,[8],4.43 µM (inconclusive)
same,EC50,[9],1.34 µM (active)
same,EC50,[10],> 195 µM (not active)
same,EC50,[11],> 79.4 µM (not active)
same,EC50,[12],> 30 µM (not active)
same,EC50,[13],4.43 µM (active)
CCOc1ccccc1-n1c(SCC(=O)N2CCCc3ccccc32)nnc1-c1cccnc1,IC50,[14],24.8 µM (not active)
same,IC50,[15],> 55.9 µM (not active)
